According to patent US20020048549A1, “Radioactive transition metal nitride heterocomplex” (priority 1996, published 2002):

Test: Biodistribution of 99mTcN-DESI in SD rats (Group A alone, Group B with unlabeled desipramine)
Type: in vivo
Procedure: The biodistribution of the ^99mTcN-DESI in SD rats obtained in Example 15 was measured.
Before being injected into the rats, the ^99mTcN-DESI was separated and purified from the excess and free bidentate ligand by HPLC. The active ingredient of the complex was further purified by passage through a Sep-Pak cartridge activated with 5 ml of 95% ethanol. The final active ingredient was recovered with 95% ethanol and diluted with physiological saline containing 10% Tween 80.
The rats were divided into two groups, group A and group B. Into each rat in group A was injected 20 μCi of the ^99mTcN-DESI. Into each rat in group B were injected 20 μCi of the ^99mTcN-DESI and 1.0 mg/kg of unlabeled desipramine at the same time.
SD rats weighing about 250 g were put under intraperitoneal anesthesia with a mixture of xylazine (18 mg/kg) and ketamine (15 mg/kg) and given an injection in the jugular vein. Then, the organs (brain, heart, lung, liver, spleen, kidney, muscle, adrenal, and submaxillary gland) were excised from the rats at different intervals of time, washed and then weighed. In addition, blood samples were collected and then weighed. The data on the biodistribution are expressed as the mean±significant difference of the percentage of radioactivity level per gram of the organ weight based on the dose of radioactivity, (% dose/g). The measurement was carried out using groups of 3 rats each.

[1] = Group A (complex alone), 10 min
[2] = Group A (complex alone), 30 min
[3] = Group A (complex alone), 60 min
[4] = Group A (complex alone), 120 min
[5] = Group A (complex alone), 150 min
[6] = Group B (with 1.0 mg/kg unlabeled desipramine), 2 min
[7] = Group B (with 1.0 mg/kg unlabeled desipramine), 5 min
[8] = Group B (with 1.0 mg/kg unlabeled desipramine), 10 min
[9] = Group B (with 1.0 mg/kg unlabeled desipramine), 30 min
[10] = Group B (with 1.0 mg/kg unlabeled desipramine), 60 min
[11] = Group B (with 1.0 mg/kg unlabeled desipramine), 120 min
[12] = Group B (with 1.0 mg/kg unlabeled desipramine), 150 min

## COCCC[P+]1(CCCOC)CCN(CCOC)CC[P+](CCCOC)(CCCOC)[99Tc-2]12(#[N])[NH]C(C(=O)N(C)CCCN1c3ccccc3CCc3ccccc31)C[S]2 (centres unmarked) [^99mTcN-DESI]
Group A (complex alone), 2 min
  Adrenal glands % dose/g: 4.227 ± 0.089 % dose/g
  Blood % dose/g: 0.383 ± 0.287 % dose/g
  Brain % dose/g: 0.082 ± 0.010 % dose/g
  Heart % dose/g: 0.904 ± 0.062 % dose/g
  Kidney % dose/g: 6.518 ± 0.821 % dose/g
  Liver % dose/g: 7.259 ± 0.005 % dose/g
  Lung % dose/g: 0.565 ± 0.074 % dose/g
  Muscle % dose/g: 0.110 ± 0.004 % dose/g
  Spleen % dose/g: 1.833 ± 0.249 % dose/g
  Submaxillary glands % dose/g: 1.791 ± 0.249 % dose/g
Group A (complex alone), 5 min
  Adrenal glands % dose/g: 3.710 ± 0.682 % dose/g
  Blood % dose/g: 0.349 ± 0.033 % dose/g
  Brain % dose/g: 0.079 ± 0.002 % dose/g
  Heart % dose/g: 0.881 ± 0.071 % dose/g
  Kidney % dose/g: 6.193 ± 0.421 % dose/g
  Liver % dose/g: 5.798 ± 0.549 % dose/g
  Lung % dose/g: 0.425 ± 0.094 % dose/g
  Muscle % dose/g: 0.105 ± 0.010 % dose/g
  Spleen % dose/g: 1.927 ± 0.155 % dose/g
  Submaxillary glands % dose/g: 1.721 ± 0.460 % dose/g
[1]
  Adrenal glands % dose/g: 5.353 ± 0.339 % dose/g
  Blood % dose/g: 0.212 ± 0.012 % dose/g
  Brain % dose/g: 0.076 ± 0.003 % dose/g
  Heart % dose/g: 0.894 ± 0.016 % dose/g
  Kidney % dose/g: 6.295 ± 0.329 % dose/g
  Liver % dose/g: 4.539 ± 0.286 % dose/g
  Lung % dose/g: 0.399 ± 0.011 % dose/g
  Muscle % dose/g: 0.096 ± 0.009 % dose/g
  Spleen % dose/g: 2.139 ± 0.200 % dose/g
  Submaxillary glands % dose/g: 1.876 ± 0.030 % dose/g
[2]
  Adrenal glands % dose/g: 5.153 ± 0.039 % dose/g
  Blood % dose/g: 0.095 ± 0.024 % dose/g
  Brain % dose/g: 0.070 ± 0.005 % dose/g
  Heart % dose/g: 0.951 ± 0.103 % dose/g
  Kidney % dose/g: 10.11 ± 1.762 % dose/g
  Liver % dose/g: 3.069 ± 0.672 % dose/g
  Lung % dose/g: 0.351 ± 0.085 % dose/g
  Muscle % dose/g: 0.098 ± 0.021 % dose/g
  Spleen % dose/g: 1.965 ± 0.158 % dose/g
  Submaxillary glands % dose/g: 2.065 ± 0.069 % dose/g
[3]
  Adrenal glands % dose/g: 4.800 ± 1.737 % dose/g
  Blood % dose/g: 0.069 ± 0.008 % dose/g
  Brain % dose/g: 0.064 ± 0.003 % dose/g
  Heart % dose/g: 0.931 ± 0.025 % dose/g
  Kidney % dose/g: 6.227 ± 1.020 % dose/g
  Liver % dose/g: 2.809 ± 0.739 % dose/g
  Lung % dose/g: 0.224 ± 0.070 % dose/g
  Muscle % dose/g: 0.108 ± 0.015 % dose/g
  Spleen % dose/g: 1.873 ± 0.667 % dose/g
  Submaxillary glands % dose/g: 1.491 ± 1.149 % dose/g
[4]
  Adrenal glands % dose/g: 4.220 ± 0.182 % dose/g
  Blood % dose/g: 0.068 ± 0.001 % dose/g
  Brain % dose/g: 0.051 ± 0.001 % dose/g
  Heart % dose/g: 0.806 ± 0.080 % dose/g
  Kidney % dose/g: 5.538 ± 0.607 % dose/g
  Liver % dose/g: 1.463 ± 0.186 % dose/g
  Lung % dose/g: 0.151 ± 0.001 % dose/g
  Muscle % dose/g: 0.397 ± 0.033 % dose/g
  Spleen % dose/g: 1.453 ± 0.085 % dose/g
  Submaxillary glands % dose/g: 1.351 ± 0.037 % dose/g
[5]
  Adrenal glands % dose/g: 5.013 ± 1.061 % dose/g
  Blood % dose/g: 0.058 ± 0.008 % dose/g
  Brain % dose/g: 0.034 ± 0.004 % dose/g
  Heart % dose/g: 0.884 ± 0.075 % dose/g
  Kidney % dose/g: 7.182 ± 0.349 % dose/g
  Liver % dose/g: 1.375 ± 0.054 % dose/g
  Lung % dose/g: 0.194 ± 0.002 % dose/g
  Muscle % dose/g: 0.090 ± 0.009 % dose/g
  Spleen % dose/g: 1.461 ± 0.132 % dose/g
  Submaxillary glands % dose/g: 1.976 ± 0.293 % dose/g
[6]
  Adrenal glands % dose/g: 4.314 ± 0.718 % dose/g
  Blood % dose/g: 0.467 ± 0.011 % dose/g
  Brain % dose/g: 0.032 ± 0.004 % dose/g
  Heart % dose/g: 0.793 ± 0.037 % dose/g
  Kidney % dose/g: 5.492 ± 0.602 % dose/g
  Liver % dose/g: 5.149 ± 0.787 % dose/g
  Lung % dose/g: 0.488 ± 0.042 % dose/g
  Muscle % dose/g: 0.103 ± 0.002 % dose/g
  Spleen % dose/g: 1.841 ± 0.197 % dose/g
  Submaxillary glands % dose/g: 1.878 ± 0.09 % dose/g
[7]
  Adrenal glands % dose/g: 4.480 ± 0.991 % dose/g
  Blood % dose/g: 0.277 ± 0.028 % dose/g
  Brain % dose/g: 0.029 ± 0.003 % dose/g
  Heart % dose/g: 0.819 ± 0.052 % dose/g
  Kidney % dose/g: 5.899 ± 1.397 % dose/g
  Liver % dose/g: 6.420 ± 0.378 % dose/g
  Lung % dose/g: 0.353 ± 0.028 % dose/g
  Muscle % dose/g: 0.101 ± 0.014 % dose/g
  Spleen % dose/g: 2.032 ± 0.197 % dose/g
  Submaxillary glands % dose/g: 1.786 ± 0.201 % dose/g
[8]
  Adrenal glands % dose/g: 4.349 ± 0.164 % dose/g
  Blood % dose/g: 0.170 ± 0.020 % dose/g
  Brain % dose/g: 0.018 ± 0.001 % dose/g
  Heart % dose/g: 0.814 ± 0.023 % dose/g
  Kidney % dose/g: 5.192 ± 0.036 % dose/g
  Liver % dose/g: 4.732 ± 0.057 % dose/g
  Lung % dose/g: 0.348 ± 0.003 % dose/g
  Muscle % dose/g: 0.086 ± 0.007 % dose/g
  Spleen % dose/g: 1.559 ± 0.074 % dose/g
  Submaxillary glands % dose/g: 1.669 ± 0.126 % dose/g
[9]
  Adrenal glands % dose/g: 6.120 ± 2.224 % dose/g
  Blood % dose/g: 0.169 ± 0.028 % dose/g
  Brain % dose/g: 0.018 ± 0.003 % dose/g
  Heart % dose/g: 0.832 ± 0.170 % dose/g
  Kidney % dose/g: 7.883 ± 1.689 % dose/g
  Liver % dose/g: 4.957 ± 0.168 % dose/g
  Lung % dose/g: 0.27 ± 0.117 % dose/g
  Muscle % dose/g: 0.091 ± 0.011 % dose/g
  Spleen % dose/g: 1.339 ± 0.380 % dose/g
  Submaxillary glands % dose/g: 1.042 ± 0.123 % dose/g
[10]
  Adrenal glands % dose/g: 4.321 ± 0.712 % dose/g
  Blood % dose/g: 0.074 ± 0.016 % dose/g
  Brain % dose/g: 0.016 ± 0.002 % dose/g
  Heart % dose/g: 0.693 ± 0.057 % dose/g
  Kidney % dose/g: 5.176 ± 0.584 % dose/g
  Liver % dose/g: 2.505 ± 0.113 % dose/g
  Lung % dose/g: 0.253 ± 0.014 % dose/g
  Muscle % dose/g: 0.110 ± 0.024 % dose/g
  Spleen % dose/g: 1.403 ± 0.209 % dose/g
  Submaxillary glands % dose/g: 1.596 ± 0.138 % dose/g
[11]
  Adrenal glands % dose/g: 4.588 ± 0.985 % dose/g
  Blood % dose/g: 0.050 ± 0.007 % dose/g
  Brain % dose/g: 0.004 ± 0.000 % dose/g
  Heart % dose/g: 0.745 ± 0.063 % dose/g
  Kidney % dose/g: 5.737 ± 0.093 % dose/g
  Liver % dose/g: 1.159 ± 0.09 % dose/g
  Lung % dose/g: 0.206 ± 0.048 % dose/g
  Muscle % dose/g: 0.343 ± 0.443 % dose/g
  Spleen % dose/g: 1.865 ± 0.313 % dose/g
  Submaxillary glands % dose/g: 1.641 ± 0.280 % dose/g
[12]
  Adrenal glands % dose/g: 4.09 ± 0.294 % dose/g
  Blood % dose/g: 0.050 ± 0.014 % dose/g
  Brain % dose/g: 0.001 ± 0.000 % dose/g
  Heart % dose/g: 0.815 ± 0.070 % dose/g
  Kidney % dose/g: 5.646 ± 1.192 % dose/g
  Liver % dose/g: 1.253 ± 0.006 % dose/g
  Lung % dose/g: 0.163 ± 0.036 % dose/g
  Muscle % dose/g: 0.096 ± 0.007 % dose/g
  Spleen % dose/g: 1.637 ± 0.147 % dose/g
  Submaxillary glands % dose/g: 1.983 ± 0.339 % dose/g
SD rats
  accumulation in adrenal: very large amount
  accumulation in heart: considerable amount
  elimination through liver and kidney: very rapidly eliminated
